In ChEMBL document CHEMBL1212880, “Discovery of (2,4-dihydroxy-5-isopropylphenyl)-[5-(4-methylpiperazin-1-ylmethyl)-1,3-dihydroisoindol-2-yl]methanone (AT13387), a novel inhibitor of the molecular chaperone Hsp90 by fragment based drug design” (J Med Chem, 2010):

What was measured:
[1] = Dissociation constant, pKa of the compound; format: physicochemical
[2] = system: HCT-116; assay: Antitumor activity against human HCT116 cells xenografted in BALB/c mouse assessed as inhibition of tumor growth at 80 mg/kg, ip qd for 8 days measured on day 12; format: functional; conditions: HCT-116, ip, route intraperitoneal
[3] = target: CYP3A4 (Homo sapiens, UniProt P08684); assay: Inhibition of CYP3A4 at 10 uM; format: ADME
Chain of CYP3A4 (P08684 whole entry): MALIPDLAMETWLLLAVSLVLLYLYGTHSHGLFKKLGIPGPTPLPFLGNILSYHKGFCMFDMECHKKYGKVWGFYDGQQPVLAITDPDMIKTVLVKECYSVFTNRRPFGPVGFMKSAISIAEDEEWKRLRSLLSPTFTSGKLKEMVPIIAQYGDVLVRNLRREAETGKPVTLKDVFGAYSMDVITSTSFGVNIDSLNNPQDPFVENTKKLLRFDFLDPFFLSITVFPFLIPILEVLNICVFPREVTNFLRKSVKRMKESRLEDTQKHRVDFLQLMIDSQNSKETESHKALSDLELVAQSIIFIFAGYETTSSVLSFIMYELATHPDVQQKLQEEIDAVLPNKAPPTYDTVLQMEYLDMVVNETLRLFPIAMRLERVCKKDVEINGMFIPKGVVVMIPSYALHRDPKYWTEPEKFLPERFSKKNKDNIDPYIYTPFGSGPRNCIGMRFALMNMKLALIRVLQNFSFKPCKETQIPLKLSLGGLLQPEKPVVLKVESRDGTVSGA

[4] = target: T1, hERG (KCNH2) (Homo sapiens, UniProt Q12809); assay: in vitro; conditions: HEK293 cells expressing hERG
T1 sequence (Q12809 whole entry): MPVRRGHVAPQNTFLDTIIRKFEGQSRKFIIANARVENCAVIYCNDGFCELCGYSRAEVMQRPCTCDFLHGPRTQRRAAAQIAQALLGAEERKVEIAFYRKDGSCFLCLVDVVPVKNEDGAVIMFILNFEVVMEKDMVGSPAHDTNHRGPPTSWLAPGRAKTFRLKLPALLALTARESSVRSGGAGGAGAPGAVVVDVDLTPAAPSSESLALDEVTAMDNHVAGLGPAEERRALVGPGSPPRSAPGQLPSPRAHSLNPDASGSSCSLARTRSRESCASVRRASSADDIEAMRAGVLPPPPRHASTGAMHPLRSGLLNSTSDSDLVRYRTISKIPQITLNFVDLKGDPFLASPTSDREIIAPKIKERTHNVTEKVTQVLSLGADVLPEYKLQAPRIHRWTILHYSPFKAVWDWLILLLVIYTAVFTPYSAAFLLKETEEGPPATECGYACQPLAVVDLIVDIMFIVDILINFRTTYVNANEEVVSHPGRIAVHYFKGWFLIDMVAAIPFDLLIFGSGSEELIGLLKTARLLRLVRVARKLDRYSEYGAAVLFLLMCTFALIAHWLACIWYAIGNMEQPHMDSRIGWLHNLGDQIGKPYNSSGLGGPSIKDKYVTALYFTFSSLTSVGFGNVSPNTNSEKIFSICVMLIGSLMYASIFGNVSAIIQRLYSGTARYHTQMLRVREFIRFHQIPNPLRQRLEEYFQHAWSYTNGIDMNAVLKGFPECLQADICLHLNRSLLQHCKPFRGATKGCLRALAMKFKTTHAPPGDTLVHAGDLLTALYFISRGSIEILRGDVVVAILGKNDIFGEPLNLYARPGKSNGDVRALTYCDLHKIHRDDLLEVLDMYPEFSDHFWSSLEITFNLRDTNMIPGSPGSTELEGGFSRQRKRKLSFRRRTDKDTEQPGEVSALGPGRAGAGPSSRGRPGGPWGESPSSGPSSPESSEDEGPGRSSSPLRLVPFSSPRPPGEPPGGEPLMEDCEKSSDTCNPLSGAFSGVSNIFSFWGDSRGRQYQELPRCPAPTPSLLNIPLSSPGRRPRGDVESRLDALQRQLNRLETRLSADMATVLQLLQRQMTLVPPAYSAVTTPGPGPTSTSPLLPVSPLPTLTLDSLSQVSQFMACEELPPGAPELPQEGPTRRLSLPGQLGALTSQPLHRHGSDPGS
Description: Inhibition of human ERG expressed in HEK293 cells at 30 uM by patch clamp assay

[5] = Drug level in human HCT116 cells xenografted nude BALB/c mouse tumor at 80 mg/kg, iv after 24 hrs; format: ADME, organism-based, Neoplasm, HCT-116; set-up: dose 80 mg/kg, route intravenous; conditions: read-out: Drug uptake
[6] = Intrinsic clearance in mouse liver S9 fraction; format: ADME, subcellular
[7] = system: HCT-116; assay: Antitumor activity against human HCT116 cells xenografted in BALB/c mouse assessed as inhibition of tumor growth at 80 mg/kg, ip qd for 8 days measured on day 12 relative to control; format: functional; conditions: HCT-116, ip, route intraperitoneal
[8] = target: T1, hERG (KCNH2); assay: in vitro; conditions: HEK293 cells expressing hERG; remark: listed apart in the source
Description: Inhibition of human ERG expressed in HEK293 cells at 3 uM by patch clamp assay

[9] = physchem; conditions: buffer, pH 7.4
[10] = system: HCT-116; assay: Antitumor activity against human HCT116 cells xenografted in BALB/c mouse assessed as delay in tumor growth at 80 mg/kg, ip qd for 8 days; format: functional; conditions: route intraperitoneal
[11] = Clearance in BALB/c mouse plasma at 10 mg/kg, iv; format: ADME, organism-based; set-up: dose 10 mg/kg, route intravenous
[12] = target: Cytochrome P450 2C9 (Homo sapiens, UniProt P11712); assay: Binding affinity to CYP2C9; format: ADME
Chain of Cytochrome P450 2C9 (P11712 whole entry): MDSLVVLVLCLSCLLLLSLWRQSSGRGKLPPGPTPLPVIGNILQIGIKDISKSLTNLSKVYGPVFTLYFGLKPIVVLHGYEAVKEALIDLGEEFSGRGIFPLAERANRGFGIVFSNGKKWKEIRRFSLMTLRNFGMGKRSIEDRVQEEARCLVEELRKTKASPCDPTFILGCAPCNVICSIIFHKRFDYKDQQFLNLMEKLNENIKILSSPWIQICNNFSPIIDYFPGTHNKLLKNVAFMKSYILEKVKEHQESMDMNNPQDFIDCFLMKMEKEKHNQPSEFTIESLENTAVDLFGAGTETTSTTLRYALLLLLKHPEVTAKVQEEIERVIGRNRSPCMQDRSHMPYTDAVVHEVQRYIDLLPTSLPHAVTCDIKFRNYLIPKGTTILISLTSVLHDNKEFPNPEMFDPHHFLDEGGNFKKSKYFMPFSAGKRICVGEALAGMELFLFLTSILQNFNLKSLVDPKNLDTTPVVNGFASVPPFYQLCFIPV

[13] = target: Cytochrome P450 2C19 (Homo sapiens, UniProt P33261); assay: Binding affinity to CYP2C19; format: ADME
Chain of Cytochrome P450 2C19 (P33261 whole entry): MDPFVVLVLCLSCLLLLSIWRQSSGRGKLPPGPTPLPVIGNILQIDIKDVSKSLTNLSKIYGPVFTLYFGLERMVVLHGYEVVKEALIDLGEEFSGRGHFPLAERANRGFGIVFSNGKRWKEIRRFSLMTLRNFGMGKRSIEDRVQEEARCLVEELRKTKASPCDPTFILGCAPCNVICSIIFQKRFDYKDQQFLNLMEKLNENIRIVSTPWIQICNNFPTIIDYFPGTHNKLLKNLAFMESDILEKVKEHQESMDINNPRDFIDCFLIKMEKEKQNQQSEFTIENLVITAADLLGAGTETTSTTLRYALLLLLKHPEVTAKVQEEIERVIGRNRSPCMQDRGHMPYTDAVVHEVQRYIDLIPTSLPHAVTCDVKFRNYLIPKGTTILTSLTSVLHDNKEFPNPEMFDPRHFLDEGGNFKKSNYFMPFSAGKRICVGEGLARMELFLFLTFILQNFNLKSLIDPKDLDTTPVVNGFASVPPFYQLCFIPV

[14] = target: CYP2C19 (Homo sapiens, UniProt P33261); assay: Inhibition of CYP2C19 at 10 uM; format: ADME
Chain of CYP2C19 (P33261 whole entry): as above

[15] = target: CYP2C9 (Homo sapiens, UniProt P11712); assay: Inhibition of CYP2C9 at 10 uM; format: ADME
Chain of CYP2C9 (P11712 whole entry): as the sequence (P11712 whole entry) above

[16] = Protein binding in human plasma after 6 hrs by equilibrium dialysis method; format: ADME, cell-free; conditions: read-out: PPB (converted)
[17] = Drug level in human HCT116 cells xenografted nude BALB/c mouse tumor at 40 mg/kg, iv after 24 hrs; format: ADME, organism-based, Neoplasm, HCT-116; set-up: dose 40 mg/kg, route intravenous; conditions: read-out: Drug uptake
[18] = system: HCT-116; assay: Antitumor activity against human HCT116 cells xenografted in BALB/c mouse assessed as inhibition of tumor growth at 80 mg/kg, ip qd for 8 days measured on day 10 relative to control; format: functional; conditions: HCT-116, ip, route intraperitoneal
[19] = system: HCT-116; assay: Cytotoxicity against human HCT116 cells at 10 uM by Alamar blue assay; format: functional
[20] = system: HCT-116; assay: Antitumor activity against human HCT116 cells xenografted in BALB/c mouse assessed as inhibition of tumor growth at 80 mg/kg, ip qd for 8 days measured on day 10; format: functional; conditions: HCT-116, ip, route intraperitoneal
[21] = system: HCT-116; assay: Cytotoxicity against human HCT116 cells at 100 uM by Alamar blue assay; format: functional
[22] = system: HCT-116; assay: Cytotoxicity against human HCT116 cells at 30 uM by Alamar blue assay; format: functional, cell-based

| pKa [1] | logD [9] | SMILES | inhibition at 30 µM [4] [%] | inhibition at 3 µM [8] [%] | other results |
| --- | --- | --- | --- | --- | --- |
| 4.3 | – | CC(C)c1cc(C(=O)N2Cc3ccc(N4CCOCC4)cc3C2)c(O)cc1O | – | – | – |
| 6.9 | 3.3 | CC(C)c1cc(C(=O)N2Cc3ccc(CN4CCOCC4)cc3C2)c(O)cc1O | 48 | 25 | – |
| 9.2 | 2.1 | CC(C)c1cc(C(=O)N2Cc3ccc(CN(C)C)cc3C2)c(O)cc1O | 57 | 5 | inhibition at 10 µM [14]: 50%; inhibition at 10 µM [15]: 50%; fraction unbound at 6 h [16]: 0.36 |
| 7.3 | 2.98 | CC(C)c1cc(C(=O)N2Cc3ccc(N4CCN(C)CC4)cc3C2)c(O)cc1O | 87 | 41 | concentration at 24 h [17]: 6.5 µM; inhibition in vivo at 80 mg/kg [18]: 19%; Activity [19]: 0%; microsomal CLint ([6]; liver S9 fraction): 41 µL/min/mg; inhibition in vivo at 80 mg/kg [20]: 81%; Activity [10]: 10.5 days; clearance [11]: 130 mL/min/kg |
| 10.2 | 0.7 | CC(C)c1cc(C(=O)N2Cc3ccc(NC4CCNCC4)cc3C2)c(O)cc1O | 20 | 10 | – |

The remaining lines, values behind:

| SMILES | pKa [1] | logD [9] | inhibition at 30 µM [4] [%] | inhibition at 3 µM [8] [%] | other results |
| --- | --- | --- | --- | --- | --- |
| CC(C)c1cc(C(=O)N2Cc3ccc(OCCN(C)C)cc3C2)c(O)cc1O | 7.85 | 2.4 | 87 | 45 | inhibition in vivo at 80 mg/kg [2]: 63%; inhibition at 10 µM [3]: 34%; concentration at 24 h [5]: 11 µM; CL ([6]; s9): 0.034 mL/min/kg; inhibition in vivo at 80 mg/kg [7]: 37%; Activity [10]: 11.4 days; clearance [11]: 170 mL/min/kg |
| CC(C)c1cc(C(=O)N2Cc3ccc(OCCCN)cc3C2)c(O)cc1O | 10.2 | 0.96 | 42 | 8 | Activity [12]: Active; Activity [13]: Active |
| CC(C)c1cc(C(=O)N2Cc3ccc(OCCN)cc3C2)c(O)cc1O | – | – | 64 | 11 | Activity [12]: Active; Activity [13]: Active |
| CC(C)c1c(O)cc(O)c(C(=O)N2Cc3ccccc3C2)c1F | – | – | – | – | Activity [21]: 60%; Activity [22]: Not toxic |
| CC(C)c1cc(C(=O)N2Cc3ccc(OCCNCC(C)(C)C)cc3C2)c(O)cc1O | – | – | 92 | 53 | – |
